The record followed here is PMC7762498, “Demethoxycurcumin analogue DMC-BH exhibits potent anticancer effects on orthotopic glioblastomas” (Aging (Albany NY), 2020).

A short description of data set [1]: Rat pharmacokinetic study. Type of data set: in vivo, rats. Also noted: Vz_F_obs (volume of distribution): unit not given here. As to conditions: for MRT last: read-out: MRTlast (mean residence time); for half-life: read-out: T1/2 (half-life) (converted). Here is the method:
Rat PK studies were performed to study whether DMC-BH is more bioavailable than did DMC.
Female Sprague-Dawley (SD) rats (n = 3) were purchased from the Shanghai Experimental Animal Center of Chinese Academy of Science (Shanghai, China). After 3 days of acclimatization, DMC-BH or DMC was administered intravenously into the jugular vein catheters at a dose of 1.00 mg/kg. After oral administration, blood samples (250 μL) were collected via jugular vein catheters at 30, 60, 90, 120, 150, 180 and 240 minutes and 8, 12 and 24 hours. Plasma samples were prepared by centrifuging the blood samples at 13,000 g for 5 minutes. All plasma samples were stored immediately at -80° C until analyzed. Analytes were extracted from 100 μL of plasma with 300 μL of acetonitrile containing 125 ng/mL of the internal standard (midazolam). The samples were thoroughly mixed and centrifuged at 8,000 g. The organic extract was added to 150 μL of 5mM NH4FA and transferred to the autosampler for LC-MS/MS analysis. Multiple reaction monitoring mode, a highly specific and sensitive label-free technique was performed by scanning the most sensitive signals. The pharmacokinetic parameters were determined using non-compartmental analysis (WinNonlin, Pharsight Corporation, Mountain View, CA, USA).

A further data set in a line: in vivo. Particulars: female, ICR, mouse, ip.
In another data set the test system is p-mTOR. Briefly: Western blot of orthotopic xenograft tissue, p-mTOR. Type of data set: in vivo, mice. Particulars: U87 orthotopic xenografts, versus control. An excerpt:
The PI3K/Akt/mTOR signaling pathway is over activated in glioma tissues, and this increased activation is closely related to malignancy and chemoresistance of gliomas. Previous research reported that among its potential anti-tumor actions in breast cancer, DMC targeted multiple AMPK downstream pathways involving dephosphorylation of Akt and mTOR inhibition. Because DMC-BH is a DMC derivative, we further investigated the inhibitory effects of DMC-BH on gliomas by targeting the Akt/mTOR signaling pathway. We evaluated the expression of p-Akt, and p-mTOR in tumor tissues after DMC-BH treatment (Figure 6A). […] No significant changes were found in total Akt and mTOR expression. Moreover, the expression of p-Akt and p-mTOR in the DMC group was decreased with that in the control group (P < 0.05).
Figure 6 The effects of DMC-BH and DMC on the Akt/mTOR signaling pathway in U87 orthotopic glioblastoma xenografts. (A) Total protein was extracted from U87 orthotopic glioblastoma xenografts. Then p-Akt and p-mTOR protein expression was detected by Western blot. (B) The column chart illustrates the relative expression levels of these proteins.
(Immunoblotting shows a protein as a band on a membrane.)

Data set [2] deals with human glioblastoma U87-Luc cells. Briefly: Orthotopic glioblastoma xenograft (BLI, immunohistochemistry). Type of data set: in vivo, mice. As to conditions: for tumor growth (BLI): U87-Luc orthotopic xenograft, nude mice, 20 mg/kg intraperitoneal; for percentage of TUNEL-positive cells / Ki67-positive rate: orthotopic xenograft tissue, 20 mg/kg; for percentage of TUNEL-positive cells: control 3.30% ± 0.26%; for Ki67-positive rate: untreated group 36.73% ± 4.82%. Here is the method:
We used orthotopic glioblastoma xenografts transplanted into mice by human glioblastoma U87-Luc cells to quantify the anti-tumor effect of DMC-BH and DMC. Tumor growth was recorded in vivo using Bioluminescent Imaging (BLI). […] The sizes of the tumors in the mice treated with DMC-BH were much smaller than those in the DMC-treated group or control group (P < 0.05) (Figure 4B). […] In addition, no significant body weight loss occurred in any of the three groups (P > 0.05) (Figure 4C).
Figure 4 The effects of DMC-BH and DMC on tumor growth in orthotopic glioblastoma xenograft models. (A) U87-Luc xenograft tumor-bearing nude mice were treated with 20 mg/kg DMC-BH, 20 mg/kg DMC or isometric saline for 18 days. The growth of orthotopic glioblastoma xenografts was monitored by BLI. (B) The sizes of orthotopic glioblastoma xenografts were measured using an IVIS spectrum image system. (C) The body weight of animals was measured after DMC-BH, DMC or isometric saline treatment.
Figure 5 The effects of DMC-BH and DMC on orthotopic glioblastoma growth were analyzed by immunohistochemical staining. (A) The orthotopic glioblastoma growth potential after treatment with 20 mg/kg DMC-BH or DMC treatment was evaluated by Ki67 immunohistochemistry. (B) The orthotopic glioblastoma apoptosis rate after treatment with 20 mg/kg DMC-BH or DMC was analyzed by TUNEL staining.
Thirty-six male nude mice weighing between approximately 18 g and 20 g and aged 6 to 8 weeks were divided into a control group, DMC group and DMC-BH group. The nude mice were handled under a laminar flow hood, and the feed, bedding, cage and contact instruments were all used after high pressure disinfection. The amplified U87-Luc cells were passaged in a 6 cm culture dish and placed in a 5% CO2 incubator. Ten percent chloral hydrate (40 μL/10 g) was used to anesthetize nude mice, and the nude mice were fixed on a stereotaxic apparatus when they were under deep anesthesia. We began to digest the U87-Luc cells once the mice were immobilized. The concentration of cells was 1 × 10^8/mL. Using a micro syringe, we slowly drew up 5 μL cells. Then 5 × 10^5 U87-Luc cells were injected into the caudate nucleus of the nude mice through an infusion of 1 μL/min. The orthotopic glioblastoma growth was quantified by BLI using an IVIS SPECTRUM 200 system (Perkin Elmer). Either DMC-BH or DMC was administered via intraperitoneal injection at a dose level of 20 mg/kg per injection. The drug administration started 10 days after intracranial implantation of U87-Luc cells, and in vivo imaging confirmed that the tumors were formed. The drug was administered continuously for 18 days. Control mice received an equivalent volume of physiologic solution each day. At day 18, all animals were sacrificed by CO2 inhalation.
Anesthetize mice with 2-3% isoflurane. Inject mice intraperitoneally with D-luciferin (150 μl of 15 mg/ml stock). Ten minutes after luciferin injection assess bioluminescent signal over an integration time of 10 and 60 s using a cooled charge-coupled device (CCD) camera (Spectrum; Caliper Life Sciences, Hopkinton, MA, USA). BLI was used to monitor tumor growth and response to therapy using the IVIS spectrum imaging system.
Following perfusion, the whole brain was immersed in 10% neutral paraformaldehyde buffer solution and fixed for 48 hours at room temperature. Routine dehydration and paraffin embedding were performed after fixation. Paraffin blocks were sliced to a thickness of 3 μm. We dewaxed tissue sections with xylene and rehydrated them through an ethanol gradient. The sections were then rinsed 2 times for 5 minutes with PBS. Incubate with 3% methanol solution of hydrogen peroxide for 20 minutes. Sections were then incubated in 5% goat serum for 10 minutes at room temperature. Serum was removed, and the sections were incubated with the first antibody at 4° C degree overnight. After PBS flushing, we added a secondary biotin-conjugated antibody. […]

Setting [3] is: female, Sprague-Dawley, plasma, iv, 1.00 mg/kg.
[4] abbreviates: female, Sprague-Dawley, plasma, po, i.g., 10.0 mg/kg.

Like-named read-outs stand apart in the source and are kept apart here.

Broadly, the AUC(0-t) is exposure summed from dosing to a finite time, without extrapolation to infinity. Broadly, the Cmax is the peak of the concentration-time curve. Usually Tmax stands for the time at which the peak concentration occurs. What is called bioavailability is the share of a dose that reaches the circulation, judged against a reference dose that is usually intravenous. Usually LD50 stands for the dose at which mortality reaches 50%. On to `COc1cc(C=CC(=O)CC(=O)C=Cc2ccc(O)c(CN3CCCC3)c2)ccc1O` [DMC-BH, 1-[4-Hydroxy-3-(pyrrolidin-1-ylmethyl)phenyl]-7-(4-hydroxy-3-methoxyphenyl) hepta-1,6-diene-3,5-dione], for which, in data set [1] (setting [3]), the AUC(0-t) was 634 ± 127 ng·h/mL, the MRT last was 1.85 ± 0.21 h and the half-life was 2.54 ± 0.23 h. Further, the Cmax in data set [1] (female, Sprague-Dawley, plasma, iv, 1.00 mg/kg, read-out: Cmax) is 938 ± 231 ng/mL. In addition, in data set [1] (female, Sprague-Dawley, plasma, iv, 1.00 mg/kg, read-out: Tmax), the time to peak (Tmax) came to 0.08 h. Moreover, in data set [1] (female, Sprague-Dawley, plasma, iv, 1.00 mg/kg, read-out: Vz_F_obs (volume of distribution)), the Vd is 4.9 ± 0.783 L/kg. For the same compound, the bioavailability in data set [1] (female, Sprague-Dawley, plasma, oral, i.g. 10.0 mg/kg versus i.v. 1.00 mg/kg, read-out: F (percent oral bioavailability)) was 57.1%. Also, in data set [1] (setting [4]), the AUC(0-t) amounted to 3620 ± 623 ng·h/mL, the MRT last was found to be 4.21 ± 0.16 h and the half-life was 7.82 ± 1.54 h. Moreover, the CL/F in data set [1] (female, Sprague-Dawley, plasma, po, i.g., 10.0 mg/kg, read-out: Cl_F_obs (plasma clearance rate) (converted)) was 113 mL/min/kg. For the same compound, the Cmax in data set [1] (female, Sprague-Dawley, plasma, po, i.g., 10.0 mg/kg, read-out: Cmax) was 1260 ± 385 ng/mL. Further, in data set [1] (female, Sprague-Dawley, plasma, po, i.g., 10.0 mg/kg, read-out: Tmax), the Tmax was 1.45 ± 0.35 h. In data set [1] (female, Sprague-Dawley, plasma, po, i.g., 10.0 mg/kg, read-out: Vz_F_obs (volume of distribution)), the Vd/F turned out to be 54.4 ± 19.1 L/kg. This compound came in with a Cl F obs (plasma clearance rate) in data set [1] (i.v., 1.00 mg/kg) of 24.6 ± 4.28 mL/min/kg. Further, the “increased exposure (AUC) when administered orally compared to DMC” value in data set [1] (oral) is recorded as “approximately 6 fold”. Moreover, in “in vivo”, the 50% lethal dose (LD50) at 14 days was 48.1 mg/kg. The “p-mTOR expression in tumor tissues” value with p-mTOR is reported as “significantly decreased”. For the same compound, in data set [2], the “tumor growth (BLI)” value is “much greater tumor suppressive effects”, the “percentage of TUNEL-positive cells” value is 28.68% ± 5.15% and the Ki67-positive rate is given as 6.38% ± 1.38%.

For “Demethoxycurcumin [DMC, reference compound]”, in data set [1] (i.g. 10.0 mg/kg versus i.v. 1.00 mg/kg), the “F (percent oral bioavailability)” value is recorded as 8.3%. Moreover, in data set [1] (i.g., 10.0 mg/kg), the AUClast is 620 ± 271 ng·h/mL, the Cl F obs (plasma clearance rate) stood at 12.8 ± 1.63 mL/min/kg, the Cmax came out at 216 ± 46 ng/mL and the “MRTlast (mean residence time)” value is 3.12 ± 0.45 h. In addition, in data set [1] (i.g., 10.0 mg/kg), the “T1/2 (half-life)” value is 4.32 ± 1.98 h, the Tmax is 0.67 ± 0.12 h and the “Vz_F_obs (volume of distribution)” value is 6543 ± 687. For the same compound, in data set [1] (i.v., 1.00 mg/kg), the AUClast amounted to 742 ± 254 ng·h/mL, the Cl F obs (plasma clearance rate) amounted to 21.6 ± 3.67 mL/min/kg, the Cmax is given as 754 ± 275 ng/mL and the “MRTlast (mean residence time)” value amounted to 1.32 ± 0.29 h. Besides, in data set [1] (i.v., 1.00 mg/kg), the “T1/2 (half-life)” value was 1.24 ± 0.21 h, the Tmax is listed as 0.08 ± 0.00 h and the “Vz_F_obs (volume of distribution)” value amounted to 5421 ± 432. Further, in the data set on p-mTOR, the “p-mTOR expression in tumor tissues” value is on record as “decreased”. In data set [2], the “tumor growth (BLI)” value was “slight but significant tumor inhibitory effects”, the “percentage of TUNEL-positive cells” value is given as 3.33% ± 0.31% and the Ki67-positive rate is reported as 22.17% ± 5.10%.
